Measurements from PubChem BioAssay (NCI).
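Values below derive from 48-hour exposures of cells grown in 96-well plates, with endpoints linearly interpolated between the two concentrations bracketing the appropriate inhibition level. GI50 marks 50% less growth. TGI: total growth inhibition.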

Key:
Experiment in all cases: DTP human tumour cell line panel, 48 h
786-0 renal = system: 786-0 renal
A498 renal = system: A498 renal
A549 NSCLC = system: A549 NSCLC
ACHN renal = system: ACHN renal
BT-549 breast = system: BT-549 breast
CAKI-1 renal = system: CAKI-1 renal
CCRF-CEM leukemia = system: CCRF-CEM leukemia
COLO 205 colon = system: COLO 205 colon
DU-145 prostate = system: DU-145 prostate
EKVX NSCLC = system: EKVX NSCLC
HCC-2998 colon = system: HCC-2998 colon
HCT-116 colon = system: HCT-116 colon
HCT-15 colon = system: HCT-15 colon
HL-60(TB) leukemia = system: HL-60(TB) leukemia
HOP-62 NSCLC = system: HOP-62 NSCLC
HOP-92 NSCLC = system: HOP-92 NSCLC
HS 578T breast = system: HS 578T breast
HT29 colon = system: HT29 colon
IGROV1 ovarian = system: IGROV1 ovarian
K-562 leukemia = system: K-562 leukemia
KM12 colon = system: KM12 colon
LOX IMVI melanoma = system: LOX IMVI melanoma
M14 melanoma = system: M14 melanoma
MALME-3M melanoma = system: MALME-3M melanoma
MCF7 breast = system: MCF7 breast
MDA-MB-231 breast = system: MDA-MB-231 breast
MDA-MB-435 = system: MDA-MB-435
MOLT-4 leukemia = system: MOLT-4 leukemia
NCI-H226 lung = system: NCI-H226 lung
NCI-H23 lung = system: NCI-H23 lung
NCI-H460 lung = system: NCI-H460 lung
NCI-H522 lung = system: NCI-H522 lung
NCI/ADR-RES ovarian = system: NCI/ADR-RES ovarian
OVCAR-3 ovarian = system: OVCAR-3 ovarian
OVCAR-4 ovarian = system: OVCAR-4 ovarian
OVCAR-5 ovarian = system: OVCAR-5 ovarian
OVCAR-8 ovarian = system: OVCAR-8 ovarian
PC-3 prostate = system: PC-3 prostate
RPMI-8226 leukemia = system: RPMI-8226 leukemia
RXF 393 renal = system: RXF 393 renal
SF-268 CNS = system: SF-268 CNS
SF-295 CNS = system: SF-295 CNS
SF-539 CNS = system: SF-539 CNS
SK-MEL-2 melanoma = system: SK-MEL-2 melanoma
SK-MEL-28 melanoma = system: SK-MEL-28 melanoma
SK-MEL-5 melanoma = system: SK-MEL-5 melanoma
SK-OV-3 ovarian = system: SK-OV-3 ovarian
SN12C renal = system: SN12C renal
SNB-19 CNS = system: SNB-19 CNS
SNB-75 CNS = system: SNB-75 CNS
SR leukemia = system: SR leukemia
SW-620 colon = system: SW-620 colon
T-47D breast = system: T-47D breast
TK-10 renal = system: TK-10 renal
U251 CNS = system: U251 CNS
UACC-257 melanoma = system: UACC-257 melanoma
UACC-62 melanoma = system: UACC-62 melanoma
UO-31 renal = system: UO-31 renal

Compound Cc1ccc2c(n1)C(=O)C(Cl)=C(Nc1ccc(C#N)cc1)C2=O has a GI50 (786-0 renal) of 1.74 µM, a TGI (786-0 renal) of 3.24 µM and a GI50 (A498 renal) of 16.3 µM. The TGI (A498 renal) was over 100 µM, the GI50 (A549 NSCLC) was 35.6 µM and the TGI (A549 NSCLC) was over 100 µM. The GI50 (ACHN renal) was 1.81 µM, the TGI (ACHN renal) was 3.3 µM and the GI50 (BT-549 breast) was 2.8 µM. It also gave a TGI (BT-549 breast) of 12 µM, a GI50 (CAKI-1 renal) of 1.7 µM and a TGI (CAKI-1 renal) of 3.31 µM. It also gave a GI50 (CCRF-CEM leukemia) of 0.358 µM, a TGI (CCRF-CEM leukemia) of 2.2 µM and a GI50 (COLO 205 colon) of 1.66 µM. It also gave a TGI (COLO 205 colon) of 3.51 µM, a GI50 (DU-145 prostate) of 2.13 µM and a TGI (DU-145 prostate) of 4.48 µM. The GI50 (EKVX NSCLC) was 2.19 µM, the TGI (EKVX NSCLC) was 5.59 µM and the GI50 (HCC-2998 colon) was 3.83 µM. For the same compound, the TGI (HCC-2998 colon) was 16.1 µM, the GI50 (HCT-116 colon) was 1.83 µM and the TGI (HCT-116 colon) was 3.78 µM. For the same compound, the GI50 (HCT-15 colon) was 1.74 µM, the TGI (HCT-15 colon) was 3.66 µM and the GI50 (HL-60(TB) leukemia) was 1.08 µM. The TGI (HL-60(TB) leukemia) was 3.05 µM, the GI50 (HOP-62 NSCLC) was 17.9 µM and the TGI (HOP-62 NSCLC) was 50.7 µM. The GI50 (HOP-92 NSCLC) was 1.71 µM, the TGI (HOP-92 NSCLC) was 3.41 µM and the GI50 (HS 578T breast) was 14.6 µM. It also gave a TGI (HS 578T breast) of 56.1 µM, a GI50 (HT29 colon) of 3.06 µM and a TGI (HT29 colon) of 10.6 µM. For the same compound, the GI50 (IGROV1 ovarian) was 10.7 µM, the TGI (IGROV1 ovarian) was 24.7 µM and the GI50 (K-562 leukemia) was 0.351 µM. For the same compound, the TGI (K-562 leukemia) was 1.87 µM, the GI50 (KM12 colon) was 19.9 µM and the TGI (KM12 colon) was over 100 µM. For the same compound, the GI50 (LOX IMVI melanoma) was 1.53 µM, the TGI (LOX IMVI melanoma) was 3.46 µM and the GI50 (M14 melanoma) was 6.12 µM. It also gave a TGI (M14 melanoma) of 21.9 µM, a GI50 (MALME-3M melanoma) of 1.74 µM and a TGI (MALME-3M melanoma) of 3.36 µM. It also gave a GI50 (MCF7 breast) of 1.9 µM, a TGI (MCF7 breast) of 4.62 µM and a GI50 (MDA-MB-231 breast) of 5.59 µM. The TGI (MDA-MB-231 breast) was 25.8 µM, the GI50 (MDA-MB-435) was 6.99 µM and the TGI (MDA-MB-435) was 22.7 µM. The GI50 (MOLT-4 leukemia) was 0.47 µM, the TGI (MOLT-4 leukemia) was 2.56 µM and the GI50 (NCI-H226 lung) was 4.36 µM. It also gave a TGI (NCI-H226 lung) of 17.6 µM, a GI50 (NCI-H23 lung) of 1.84 µM and a TGI (NCI-H23 lung) of 4.58 µM. For the same compound, the GI50 (NCI-H460 lung) was 30.2 µM, the TGI (NCI-H460 lung) was over 100 µM and the GI50 (NCI-H522 lung) was 1.75 µM. The TGI (NCI-H522 lung) was 3.75 µM, the GI50 (NCI/ADR-RES ovarian) was 3.55 µM and the TGI (NCI/ADR-RES ovarian) was 17.7 µM. It also gave a GI50 (OVCAR-3 ovarian) of 1.84 µM, a TGI (OVCAR-3 ovarian) of 3.51 µM and a GI50 (OVCAR-4 ovarian) of 1.59 µM. The TGI (OVCAR-4 ovarian) was 3.08 µM, the GI50 (OVCAR-5 ovarian) was 17.7 µM and the TGI (OVCAR-5 ovarian) was 34.8 µM. For the same compound, the GI50 (OVCAR-8 ovarian) was 10.1 µM, the TGI (OVCAR-8 ovarian) was 28.2 µM and the GI50 (PC-3 prostate) was 10 µM. For the same compound, the TGI (PC-3 prostate) was 25.1 µM, the GI50 (RPMI-8226 leukemia) was 2.19 µM and the TGI (RPMI-8226 leukemia) was 5.74 µM. It also gave a GI50 (RXF 393 renal) of 1.45 µM, a TGI (RXF 393 renal) of 2.79 µM and a GI50 (SF-268 CNS) of 8.36 µM. For the same compound, the TGI (SF-268 CNS) was 25.6 µM, the GI50 (SF-295 CNS) was 17.6 µM and the TGI (SF-295 CNS) was 39.2 µM. It also gave a GI50 (SF-539 CNS) of 10.2 µM, a TGI (SF-539 CNS) of 23 µM and a GI50 (SK-MEL-2 melanoma) of 11.6 µM. For the same compound, the TGI (SK-MEL-2 melanoma) was 24.6 µM, the GI50 (SK-MEL-28 melanoma) was 2.46 µM and the TGI (SK-MEL-28 melanoma) was 5.74 µM. It also gave a GI50 (SK-MEL-5 melanoma) of 4.75 µM, a TGI (SK-MEL-5 melanoma) of 17.3 µM and a GI50 (SK-OV-3 ovarian) of 11.7 µM. For the same compound, the TGI (SK-OV-3 ovarian) was 27.7 µM, the GI50 (SN12C renal) was 5.68 µM and the TGI (SN12C renal) was 25.4 µM. For the same compound, the GI50 (SNB-19 CNS) was 15.7 µM, the TGI (SNB-19 CNS) was 39.8 µM and the GI50 (SNB-75 CNS) was 6.8 µM. It also gave a TGI (SNB-75 CNS) of 34.5 µM, a GI50 (SR leukemia) of 0.375 µM and a TGI (SR leukemia) of 2.25 µM. For the same compound, the GI50 (SW-620 colon) was 1.76 µM, the TGI (SW-620 colon) was 3.87 µM and the GI50 (T-47D breast) was 1.87 µM. For the same compound, the TGI (T-47D breast) was 4.79 µM, the GI50 (TK-10 renal) was 1.83 µM and the TGI (TK-10 renal) was 3.27 µM. The GI50 (U251 CNS) was 13 µM, the TGI (U251 CNS) was 28.7 µM and the GI50 (UACC-257 melanoma) was 1.64 µM. For the same compound, the TGI (UACC-257 melanoma) was 3.17 µM, the GI50 (UACC-62 melanoma) was 10.1 µM and the TGI (UACC-62 melanoma) was 25.9 µM. It also gave a GI50 (UO-31 renal) of 1.54 µM and a TGI (UO-31 renal) of 2.97 µM.
